Laboratory results as given in patent publication US20250281607A1, “MEDICAMENT FOR TREATMENT AND/OR PREVENTION OF CANCER” (TORAY INDUSTRIES, INC., priority 2021, published 2025).

What was measured:
[1] = test system: colon cancer cell line HCT116; assay: THP-1-mediated phagocytic activity against HCT116 (Examples 3 to 6); assay type: cell-based, human; conditions: cells cultured 2 days with drug at 10 μM, then anti-CAPRIN-1 humanized antibody #1 1 μg/mL
Experimental: Specifically, in each RAS inhibitor combination test group, the indicated drug used in combination was applied to human cancer cells, and then the cancer cells were cocultured with human monocytic cells (THP-1) in the presence of the anti-CAPRIN-1 antibody, and the antibody-mediated phagocytic activity against the cancer cells by THP-1 was evaluated.
The human-derived cancer cells used were a colon cancer cell line HCT116. On a 6-well plate, the human-derived cancer cells were cultured for 2 days in the presence of the indicated drug used in combination in the lonafarnib combination test group, the sotorasib combination test group and the salirasib combination test group. […]
Each cancer cell line after the culture was dissociated with TrypLE Express (Thermo), and the cancer cells were stained by the addition of calcein-AM at a final concentration of 0.04 μg/mL and incubation at 37° C. for 10 minutes. […] Further, dead cells were stained with propidium iodide (PI) (final concentration: 0.1 μg/mL), followed by the measurement of fluorescence from the cells by flow cytometry. […] Thus, the phagocytic activity in this evaluation system was calculated as the ratio (%) of APC-positive/calcein-AM-positive cells to the whole calcein-AM-positive population. […]

[2] = test system: colon cancer cell line HCT116; assay: THP-1-mediated phagocytic activity against HCT116 (Example 2); assay type: cell-based, human; conditions: then anti-CAPRIN-1 humanized antibody #1 5 μg/mL, FIG. 2
Experimental: Specifically, in each combination test group (a trametinib combination test group, a fluorouracil combination test group and an irinotecan combination test group), the indicated drug used in combination was applied to human cancer cells, and then the cancer cells were cocultured with human monocytic cells (THP-1) in the presence of the anti-CAPRIN-1 antibody, and the antibody-mediated phagocytic activity against the cancer cells by THP-1 was evaluated. The human-derived cancer cells used were melanoma cell line A375 (used only in the trametinib combination test group), colon cancer cell line HCT116, prostate cancer cell line DU145 (used only in the trametinib combination test group), and lung cancer cell line A549 (used only in the trametinib combination test group). On a 6-well plate, the human-derived cancer cells were cultured for 2 days in the presence of trametinib for the trametinib combination test group, and cultured for 2 days in the presence of the each drug used in combination for the fluorouracil combination test group and the irinotecan combination test group. The concentration of the drug used in combination was set to a concentration that decreased the proliferation rate of the cancer cells by about half at the completion of culture. […]
Each cancer cell line after the culture was dissociated with TrypLE Express (Thermo), and the cancer cells were stained by the addition of calcein-AM at a final concentration of 0.02 μg/mL and incubation at 37° C. for 30 minutes. […] Further, dead cells were stained with propidium iodide (PI) (final concentration: 0.1 μg/mL), followed by the measurement of fluorescence from the cells by flow cytometry. […] Thus, the phagocytic activity in this evaluation system was calculated as the ratio (%) of APC-positive/calcein-AM-positive cells to the whole calcein-AM-positive population.

CAPRIN-1 protein = target: T1, CAPRIN-1 protein (Homo sapiens, UniProt Q14444); assay: ELISA reactivity with CAPRIN-1 protein immobilized on a plate; assay type: binding
T1 construct: made in house
T1 sequence (Q14444 1-709): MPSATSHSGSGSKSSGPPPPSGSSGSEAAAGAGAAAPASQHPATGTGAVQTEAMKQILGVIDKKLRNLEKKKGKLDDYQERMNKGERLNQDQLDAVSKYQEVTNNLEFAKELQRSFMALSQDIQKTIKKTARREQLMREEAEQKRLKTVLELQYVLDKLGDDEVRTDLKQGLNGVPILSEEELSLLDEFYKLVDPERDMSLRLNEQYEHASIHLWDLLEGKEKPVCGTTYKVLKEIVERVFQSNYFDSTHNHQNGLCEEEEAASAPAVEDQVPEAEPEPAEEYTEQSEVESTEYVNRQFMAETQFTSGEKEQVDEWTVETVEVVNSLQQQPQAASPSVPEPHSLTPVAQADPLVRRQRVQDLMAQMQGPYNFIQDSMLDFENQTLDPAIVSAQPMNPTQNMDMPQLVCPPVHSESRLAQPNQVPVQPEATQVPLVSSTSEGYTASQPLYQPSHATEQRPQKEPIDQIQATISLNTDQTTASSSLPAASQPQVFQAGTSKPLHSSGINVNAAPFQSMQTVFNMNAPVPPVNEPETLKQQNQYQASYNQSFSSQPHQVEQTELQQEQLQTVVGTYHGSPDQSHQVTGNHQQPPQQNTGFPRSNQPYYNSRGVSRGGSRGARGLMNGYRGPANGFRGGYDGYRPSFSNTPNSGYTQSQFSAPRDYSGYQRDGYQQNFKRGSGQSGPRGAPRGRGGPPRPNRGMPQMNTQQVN
Experimental: One hundred (100) μg of a human CAPRIN-1 recombinant protein produced according to Example 3 of WO2010/016526 was mixed with a MPL+TDM adjuvant (Sigma) in an amount equivalent to that of the recombinant protein. The mixture was used as an antigen solution per mouse. The antigen solution was administered intraperitoneally to 6-week-old Balb/c mice (Japan SLC Inc.) and then further administered 3 times […] every week for completion of immunization. A spleen was removed on day 3 after the final immunization and then ground between two sterilized glass slides. Spleen cells were obtained by repeating the following procedure three times: washing with PBS (-) (Nissui Corporation), centrifuging at 1500 rpm for 10 minutes, and removing supernatant. The obtained spleen cells were mixed with mouse myeloma cell SP2/0 (purchased from ATCC) at a ratio of 10:1. The PEG solution prepared by mixing 200 μl of RPMI1640 medium containing 10% FBS heated at 37° C. and 800 μl of PEG1500 (Boehringer) was added to the cells. The solution was incubated for 5 minutes for cell fusion. Centrifugation was performed at 1700 rpm for 5 minutes to remove supernatants. […] Absorbance at 450 nm and absorbance at 595 nm were measured using an absorption spectrometer. As a result, a plurality of hybridomas producing antibodies with high absorbances were selected. […]

## COc1cc(Nc2c(C#N)cnc3cc(OCCCN4CCN(C)CC4)c(OC)cc23)c(Cl)cc1Cl [bosutinib, 4-(2,4-dichloro-5-methoxyanilino)-6-methoxy-7-[3-(4-methylpiperazin-1-yl)propoxy]quinoline-3-carbonitrile]
[1]; FIG. 3
  phagocytic activity against cancer cells: 82%

## O=c1[nH]cc(F)c(=O)[nH]1 [fluorouracil]
[2]; cells cultured 2 days with drug at 0.4 μg/mL
  phagocytic activity against cancer cells: 16%

## O=C(Nc1ccc2[nH]nc(-c3ccncc3)c2c1)[C@@H]1CCN(CC(=O)N2CCN(c3ccc(-c4ncccn4)cc3)CC2)C1 [SCH772984, (3R)-1-[2-oxo-2-[4-(4-pyrimidin-2-ylphenyl)piperazin-1-yl]ethyl]-N-(3-pyridin-4-yl-1H-indazol-5-yl)pyrrolidine-3-carboxamide]
[1]; FIG. 5
  phagocytic activity against cancer cells: 90%

## CCc1c2c(nc3ccc(OC(=O)N4CCC(N5CCCCC5)CC4)cc13)-c1cc3c(c(=O)n1C2)COC(=O)[C@]3(O)CC [irinotecan]
[2]; cells cultured 2 days with drug at 15 μM
  phagocytic activity against cancer cells: 14%

B1: monoclonal antibody against CAPRIN-1 described in WO2013/125630: mouse monoclonal antibody; heavy-chain variable region SEQ ID NO: 114, light-chain variable region SEQ ID NO: 115; parent of humanized … (antibody, listed as Mus musculus, V domains shown)
VH: GPELVKPGASVKMSCKASGYTFTSYVMHWVKQKPGQGLEWIGYINPYNDGTKYNEKFKGKATLTSDKSSSTAYMELSSLTSEDSAVYYCARRYYYGSSGGYFDVWAQDHVRT
VL: DVQITQSPSYLAASPGETITINCRASKSISKYLAWYQEKPGKTNKLLIYSGSTLQSGIPSRFSGSGSGTDFTLTISSLEPEDFAMYYCQQHNEYPYTFGGGTKLEIKR
notes: mouse monoclonal antibody; parent of humanized antibody #1
CAPRIN-1 protein
  specific reactivity to CAPRIN-1 protein: exhibiting reactivity
